According to PubChem BioAssay (NCI):
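Tested at 5 concentrations; 48 h exposure; 96-well plates; endpoints linearly interpolated, else capped at highest concentration. TGI: total growth inhibition.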

Assays:
Test in all cases: growth of human tumour cells (NCI), 48 h
[1] = system: SW-620 colon
[2] = system: NCI-H522 lung
[3] = system: OVCAR-4 ovarian
[4] = system: UACC-257 melanoma
[5] = system: NCI-H23 lung
[6] = system: UO-31 renal
[7] = system: SF-295 CNS
[8] = system: MALME-3M melanoma
[9] = system: OVCAR-5 ovarian
[10] = system: HCT-15 colon
[11] = system: CCRF-CEM leukemia
[12] = system: SK-MEL-2 melanoma
[13] = system: SK-MEL-5 melanoma
[14] = system: OVCAR-3 ovarian
[15] = system: MCF7 breast
[16] = system: HCT-116 colon
[17] = system: SF-268 CNS
[18] = system: LOX IMVI melanoma
[19] = system: EKVX NSCLC
[20] = system: NCI-H226 lung
[21] = system: MDA-MB-231 breast
[22] = system: CAKI-1 renal
[23] = system: UACC-62 melanoma
[24] = system: HOP-62 NSCLC
[25] = system: HOP-92 NSCLC
[26] = system: SN12C renal
[27] = system: SF-539 CNS
[28] = system: SK-MEL-28 melanoma
[29] = system: HT29 colon
[30] = system: DU-145 prostate
[31] = system: HCC-2998 colon
[32] = system: T-47D breast
[33] = system: M14 melanoma
[34] = system: SR leukemia
[35] = system: U251 CNS
[36] = system: SNB-19 CNS
[37] = system: NCI/ADR-RES ovarian
[38] = system: MDA-N
[39] = system: IGROV1 ovarian
[40] = system: OVCAR-8 ovarian
[41] = system: 786-0 renal
[42] = system: A549 NSCLC
[43] = system: PC-3 prostate
[44] = system: ACHN renal
[45] = system: MDA-MB-435
[46] = system: RPMI-8226 leukemia
[47] = system: BT-549 breast
[48] = system: RXF 393 renal
[49] = system: TK-10 renal
[50] = system: COLO 205 colon
[51] = system: HS 578T breast
[52] = system: NCI-H460 lung
[53] = system: HL-60(TB) leukemia
[54] = system: KM12 colon
[55] = system: A498 renal
[56] = system: SNB-75 CNS
[57] = system: SK-OV-3 ovarian
[58] = system: K-562 leukemia
[59] = system: MOLT-4 leukemia

COc1cc2c3c(c4ccc(O)cc4c2cc1OC)[C@@H](O)[C@@H]1CCCN1C3
TGI [1]: 1.25 µM
TGI [2]: 0.00781 µM
TGI [3]: 0.00239 µM
TGI [4]: 0.0588 µM
TGI [5]: 0.0558 µM
TGI [6]: 0.0211 µM
TGI [7]: 0.0655 µM
TGI [8]: 0.00314 µM
TGI [9]: 0.0454 µM
TGI [10]: 0.204 µM
TGI [11]: 0.0073 µM
TGI [12]: 0.00429 µM
TGI [13]: 0.0206 µM
TGI [14]: 0.00493 µM
TGI [15]: < 0.001 µM
TGI [16]: 0.00188 µM
TGI [17]: 0.0018 µM
TGI [18]: 0.00339 µM
TGI [19]: 0.00625 µM
TGI [20]: 0.0137 µM
TGI [21]: 0.0078 µM
TGI [22]: 0.00285 µM
TGI [23]: 0.0807 µM
TGI [24]: 0.0421 µM
TGI [25]: 0.0191 µM
TGI [26]: 0.00932 µM
TGI [27]: < 0.0114 µM
TGI [28]: < 0.001 µM
TGI [29]: 0.034 µM
TGI [30]: 0.0036 µM
TGI [31]: 0.002 µM
TGI [32]: 0.00216 µM
TGI [33]: 0.00883 µM
TGI [34]: 0.215 µM
TGI [35]: 0.00241 µM
TGI [36]: 0.00216 µM
TGI [37]: 0.532 µM
TGI [38]: 0.145 µM
TGI [39]: 0.00965 µM
TGI [40]: 0.48 µM
TGI [41]: 0.0257 µM
TGI [42]: 0.0026 µM
TGI [43]: 0.175 µM
TGI [44]: 0.0381 µM
TGI [45]: 0.0072 µM
TGI [46]: 0.00384 µM
TGI [47]: 0.027 µM
TGI [48]: 0.0029 µM
TGI [49]: 0.00649 µM
TGI [50]: 0.145 µM
TGI [51]: 0.00566 µM
TGI [52]: 0.0155 µM
TGI [53]: 4.74 µM
TGI [54]: 0.00837 µM
TGI [55]: 0.00625 µM

O=[N+]([O-])C(/C=C(\Cl)[N+](=O)[O-])=C(N1CCOCC1)N1CCOCC1
TGI [2]: > 100 µM
TGI [3]: 53.9 µM
TGI [4]: > 100 µM
TGI [5]: > 100 µM
TGI [56]: > 100 µM
TGI [6]: 54 µM
TGI [7]: > 100 µM
TGI [8]: 70.3 µM
TGI [9]: 57.2 µM
TGI [10]: > 100 µM
TGI [11]: > 100 µM
TGI [12]: > 100 µM
TGI [13]: > 100 µM
TGI [14]: 34.4 µM
TGI [15]: 35.3 µM
TGI [16]: 62 µM
TGI [17]: > 100 µM
TGI [18]: > 100 µM
TGI [19]: > 100 µM
TGI [57]: > 100 µM
TGI [20]: > 100 µM
TGI [21]: 43.7 µM
TGI [22]: 61 µM
TGI [23]: > 100 µM
TGI [24]: 37.7 µM
TGI [25]: 76.4 µM
TGI [26]: > 100 µM
TGI [27]: 39.9 µM
TGI [28]: > 100 µM
TGI [29]: 83.1 µM
TGI [30]: > 100 µM
TGI [31]: 43 µM
TGI [32]: 52.7 µM
TGI [33]: > 100 µM
TGI [34]: > 100 µM
TGI [35]: 46.7 µM
TGI [36]: > 100 µM
TGI [37]: > 100 µM
TGI [38]: > 100 µM
TGI [39]: > 100 µM
TGI [40]: > 100 µM
TGI [41]: 30.7 µM
TGI [42]: 39.3 µM
TGI [43]: > 100 µM
TGI [44]: > 100 µM
TGI [45]: > 100 µM
TGI [46]: 54.6 µM
TGI [48]: > 100 µM
TGI [49]: > 100 µM
TGI [50]: 33.9 µM
TGI [51]: > 100 µM
TGI [52]: > 100 µM
TGI [53]: 36.8 µM
TGI [54]: > 100 µM
TGI [55]: 51.5 µM
TGI [58]: 37.6 µM
TGI [59]: > 100 µM

COC(=O)c1sc2c(c1C(=O)OC)C(=Nc1ccc(OC)cc1)SC2=Nc1ccc(OC)cc1
TGI [1]: 0.7 µM
TGI [2]: 2.45 µM
TGI [3]: 2.83 µM
TGI [4]: 2.75 µM
TGI [5]: 3.12 µM
TGI [56]: 1.24 µM
TGI [6]: 2.11 µM
TGI [7]: 3.42 µM
TGI [8]: 3.65 µM
TGI [9]: 3.55 µM
TGI [10]: 1.66 µM
TGI [11]: 0.289 µM
TGI [12]: 1.48 µM
TGI [13]: 2.54 µM
TGI [14]: 1.32 µM
TGI [15]: 2.47 µM
TGI [16]: 1.58 µM
TGI [17]: 3.61 µM
TGI [18]: 0.449 µM
TGI [19]: 3.02 µM
TGI [57]: 3.37 µM
TGI [20]: 3.55 µM
TGI [21]: 2.35 µM
TGI [22]: 5.84 µM
TGI [23]: 2.84 µM
TGI [24]: 2.23 µM
TGI [25]: 2.91 µM
TGI [26]: 1.94 µM
TGI [27]: 0.889 µM
TGI [28]: 2.85 µM
TGI [29]: 1.73 µM
TGI [30]: 1.69 µM
TGI [31]: 3.17 µM
TGI [33]: 3 µM
TGI [34]: > 100 µM
TGI [35]: 1.03 µM
TGI [36]: 2.88 µM
TGI [37]: 3.47 µM
TGI [38]: 2.52 µM
TGI [39]: 2.24 µM
TGI [40]: 2.32 µM
TGI [41]: 1.33 µM
TGI [42]: 2.68 µM
TGI [43]: 1.04 µM
TGI [44]: 2.51 µM
TGI [45]: 1.94 µM
TGI [47]: 3.43 µM
TGI [48]: 1.72 µM
TGI [49]: 3.01 µM
TGI [50]: 1.31 µM
TGI [52]: 2.79 µM
TGI [53]: 0.552 µM
TGI [54]: 3.03 µM
TGI [55]: 3.01 µM
TGI [59]: 0.494 µM
